Assay results published in US20240269139A1, “COMPOUNDS FOR TARGETED PROTEIN DEGRADATION OF KINASES” (DANA-FARBER CANCER INSTITUTE, INC., priority 2020, published 2024).
Read-outs that look alike come from different tables or passages of the source.

Tests used:
Format in all cases: cell-based
[1] = biological target: protein kinases (human kinome) (Homo sapiens, UniProt P51451); conditions: for logFC of BLK: BLK P51451; for logFC of BLK (P51451): down; for logFC BLK: BLK (P51451), direction down
[2] = test system: protein kinases (human kinome); conditions: for logFC of SRC: Accession P12931-2; for logFC LCK: accession P06239-3; for logFC MAPK8: MAPK8 P45983-4; for logFC PTK2B: accession Q14289-2; for kinases the bifunctional compound degrades: as stated for the structure in the embodiments; for Kinase hits: kinases significantly downregulated vs DMSO (fold change cutoff −1.25, P-value<0.01), ≤8 h, 0.1-5 μM degrader, 7 cell lines; for Total no. kinase hits: number of degraded kinases per library compound
[3] = biological target: protein kinases (human kinome) (Homo sapiens, UniProt P30291); conditions: for logFC of WEE1: WEE1 P30291-1
[4] = experiment wp071, direction of change down
[5] = SRC (P12931-2) protein abundance, degrader vs DMSO, down
[6] = Experiment wp168, direction down
[7] = MAPK14, accession Q16539-2, experiment wp168, direction of change down
[8] = MAPK14 Q16539-2, experiment wp168
[9] = PTK2B (Q14289-2), experiment wp168, direction down
[10] = experiment wp168, direction of change down
[11] = experiment wp045, direction of change down
[12] = CLK1 P49759-3, experiment wp076

Sequence of protein kinases (human kinome) (Homo sapiens, UniProt P51451) (P51451 whole entry): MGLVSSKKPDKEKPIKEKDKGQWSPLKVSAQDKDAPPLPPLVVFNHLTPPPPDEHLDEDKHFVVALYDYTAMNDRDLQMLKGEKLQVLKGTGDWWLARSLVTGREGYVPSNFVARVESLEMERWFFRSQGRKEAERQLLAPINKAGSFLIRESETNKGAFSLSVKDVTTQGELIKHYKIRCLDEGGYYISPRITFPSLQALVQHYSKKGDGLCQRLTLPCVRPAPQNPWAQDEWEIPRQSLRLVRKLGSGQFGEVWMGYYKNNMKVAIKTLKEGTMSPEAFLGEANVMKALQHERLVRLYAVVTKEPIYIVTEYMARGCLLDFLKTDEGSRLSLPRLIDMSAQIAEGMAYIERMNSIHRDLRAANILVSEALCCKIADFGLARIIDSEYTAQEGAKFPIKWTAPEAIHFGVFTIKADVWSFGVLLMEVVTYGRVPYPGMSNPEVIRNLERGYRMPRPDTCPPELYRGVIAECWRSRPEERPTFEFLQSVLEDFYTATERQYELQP
Sequence of protein kinases (human kinome) (Homo sapiens, UniProt P30291) (P30291 whole entry): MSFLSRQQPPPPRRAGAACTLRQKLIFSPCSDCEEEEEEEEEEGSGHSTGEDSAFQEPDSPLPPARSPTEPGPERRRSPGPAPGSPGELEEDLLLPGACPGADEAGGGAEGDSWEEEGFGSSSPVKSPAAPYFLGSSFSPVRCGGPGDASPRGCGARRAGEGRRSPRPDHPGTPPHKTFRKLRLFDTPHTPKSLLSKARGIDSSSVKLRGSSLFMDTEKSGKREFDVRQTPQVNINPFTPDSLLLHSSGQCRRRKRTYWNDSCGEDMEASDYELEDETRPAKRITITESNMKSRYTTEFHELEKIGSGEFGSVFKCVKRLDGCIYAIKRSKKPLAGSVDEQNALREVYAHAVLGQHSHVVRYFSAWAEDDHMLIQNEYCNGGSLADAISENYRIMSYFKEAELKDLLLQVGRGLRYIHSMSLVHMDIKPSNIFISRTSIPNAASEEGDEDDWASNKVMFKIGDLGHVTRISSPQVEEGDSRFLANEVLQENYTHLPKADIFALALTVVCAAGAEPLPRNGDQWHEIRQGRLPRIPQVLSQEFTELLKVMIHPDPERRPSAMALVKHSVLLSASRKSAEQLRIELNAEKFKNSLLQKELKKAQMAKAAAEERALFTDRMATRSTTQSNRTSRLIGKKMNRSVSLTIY

## Nc1ncnc2c1c(-c1ccc(Oc3ccccc3)cc1)nn2[C@H]1CC[C@H](N2CCN(CCOCCNC(=O)CNc3cccc4c3C(=O)N(C3CCC(=O)NC3=O)C4=O)CC2)CC1 (stereo partly drawn) [SB1.G.181]
[1]; experiment wp071
  logFC of BLK: −2.337
[1]; Experiment wp071
  logFC of BLK (P51451): −2.337
[2]; ABL1 (P00519-2), experiment wp071
  logFC ABL1: −1.735
[2]; Accession P06241-2, experiment wp071
  logFC FYN: −2.276
[2]; experiment wp071
  logFC of SRC: −2.478
  logFC ABL1 (P00519-2): −1.735
[2]; FYN P06241-2, experiment wp071
  logFC FYN: −2.276
[2]; [4]
  logFC LCK: −1.774
  logFC LCK (P06239-3): −1.774
[2]; [5]
  logFC: −2.478

## Cc1ccc(NC(=O)c2cccc(C(F)(F)F)c2)cc1N1Cc2cnc(Nc3ccc(N4CCN(CCCCC(=O)N[C@H](C(=O)N5C[C@H](O)C[C@H]5C(=O)N[C@@H](C)c5ccc(-c6scnc6C)cc5)C(C)(C)C)CC4)nc3)nc2N(C)C1=O [DB1113]
[1]; experiment wp168
  logFC BLK: −1.32
[1]; Experiment wp168
  logFC of BLK (P51451): −1.32
[2]; Experiment wp168
  logFC MAP3K20 (Q9NYL2-2): −0.9693
[2]; [6]
  logFC MAPK8 (P45983-4): −0.3642
[2]; experiment wp168
  logFC MAPK8: −0.3642
  logFC MAP3K20 (Q9NYL2-2): −0.9693
[2]; [7]
  logFC MAPK14: −1.588
[2]; [8]
  logFC MAPK14: −1.588
[2]; [9]
  logFC: −1.705
[2]; [10]
  logFC PTK2B: −1.705
[2]
  kinases the bifunctional compound degrades: ABL1, ABL2, BLK, CDK11B, CDK4, CSK, EPHA3, FER, GAK, LIMK1, MAP3K20, MAP4K1, MAP4K2, MAP4K3, MAP4K5, MAPK14, MAPK7, MAPK8, MAPK9, MAPKAPK2, MAPKAPK3, NLK, PDIK1L, PTK2B, RIPK1, RPS6KA1, RPS6KA3, SIK2, SIK3, STK35, TNK2, and ULK1
  Kinase hits: ABL1, ABL2, BLK, CDK11B, CDK4, CSK, EPHA3, FER, GAK, LIMK1, MAP3K20, MAP4K1, MAP4K2, MAP4K3, MAP4K5, MAPK14, MAPK7, MAPK8, MAPK9, MAPKAPK2, MAPKAPK3, NLK, PDIK1L, PTK2B, RIPK1, RPS6KA1, RPS6KA3, SIK2, SIK3, STK35, TNK2, ULK1
  Total no. kinase hits: 31

## Cc1ccc(C(=O)Nc2ccc(CN3CCN(CCOCCOCCNC(=O)CNc4cccc5c4C(=O)N(C4CCC(=O)NC4=O)C5=O)CC3)c(C(F)(F)F)c2)cc1C#Cc1cnc2cccnn12 (stereo not drawn) [TL13.150]
[1]; experiment wp081
  logFC BLK: −1.435
[1]; Experiment wp081
  logFC of BLK (P51451): −1.435
[2]; experiment wp081
  logFC of SRC: −0.5331
[2]; MAPK14, accession Q16539-2, experiment wp081, direction of change down
  logFC MAPK14: −0.5025
[2]; MAPK14 Q16539-2, experiment wp081
  logFC MAPK14: −0.5025
[2]; [5]
  logFC: −0.5331

## Cc1ccc(NC(=O)c2cccc(C(F)(F)F)c2)cc1N1Cc2cnc(Nc3ccc(N4CCN(CCCOc5cccc6c5C(=O)N(C5CCC(=O)NC5=O)C6=O)CC4)nc3)nc2N(C)C1=O (stereo not drawn) [DB0662]
[1]; experiment wp168
  logFC BLK: −1.652
[1]; Experiment wp168
  logFC of BLK (P51451): −1.652
[2]; Accession P06241-2, experiment wp168
  logFC FYN: −0.5636
[2]; Experiment wp168
  logFC MAP3K20 (Q9NYL2-2): −1.006
[2]; [6]
  logFC MAPK8 (P45983-4): −0.8961
[2]; FYN P06241-2, experiment wp168
  logFC FYN: −0.5636
[2]; experiment wp168
  logFC MAPK8: −0.8961
  logFC MAP3K20 (Q9NYL2-2): −1.006
[2]; [7]
  logFC MAPK14: −1.34
[2]; [8]
  logFC MAPK14: −1.34
[2]; [9]
  logFC: −3.245
[2]; [10]
  logFC PTK2B: −3.245
[2]
  kinases the bifunctional compound degrades: ABL1, ABL2, BLK, BUB1, CDK11B, CDK4, CSK, EPHB6, FER. FYN, GAK, LCK, LIMK1, MAP3K1, MAP3K11, MAP3K20, MAP4K1, MAPK14, MAPK8, MAPK9, MAPKAPK2, MKNK2, PAK4, PDIK1L, PTK2B, RPS6KA1, RPS6KA3, SIK2, SRC, TNK2, UHMK1, ULK1, and YES1
  Kinase hits: ABL1, ABL2, BLK, BUB1, CDK11B, CDK4, CSK, EPHB6, FER, FYN, GAK, LCK, LIMK1, MAP3K1, MAP3K11, MAP3K20, MAP4K1, MAPK14, MAPK8, MAPK9, MAPKAPK2, MKNK2, PAK4, PDIK1L, PTK2B, RPS6KA1, RPS6KA3, SIK2, SRC, TNK2, UHMK1, ULK1,YES1
  Total no. kinase hits: 33

## Cc1ccc(NC(=O)c2cccc(C(F)(F)F)c2)cc1N1Cc2cnc(Nc3ccc(N4CCN(CCCCCCOc5cccc6c5C(=O)N(C5CCC(=O)NC5=O)C6=O)CC4)nc3)nc2N(C)C1=O (stereo not drawn) [DB0663]
[1]; experiment wp045
  logFC of BLK: −1.058
[1]; Experiment wp045
  logFC of BLK (P51451): −1.058
[2]; experiment wp045
  logFC of SRC: −0.4247
  logFC MAP3K20 (Q9NYL2-2): −0.8012
[2]; Experiment wp046
  logFC MAP3K20 (Q9NYL2-2): −0.8012
[2]; [11]
  logFC LCK: −0.5823
  logFC LCK (P06239-3): −0.5823
[2]; [5]
  logFC: −0.4247
[2]; TNK2 (Q07912-3), experiment wp045, direction down
  logFC: −0.9271
[2]; TNK2 Q07912-3, experiment wp045
  logFC TNK2: −0.9271
[2]
  kinases the bifunctional compound degrades: CDK4, BLK, FER, LIMK2, GAK, CSK, SIK2, LCK, PTK2B, SRC, ABL2, MAPK14,a MAPK9, MAP4K2, MKNK2, MAP3K20, and TNK2
  Kinase hits: CDK4, BLK, FER, LIMK2, GAK, CSK, SIK2, LCK, PTK2B, SRC, ABL2, MAPK14.a MAPK9, MAP4K2, MKNK2, MAP3K20, TNK2
  Total no. kinase hits: 17

## CS(=O)(=O)Nc1cccc(-c2csc3cnc(Nc4ccc(N5CCN(CCOCCOCCOc6cccc7c6C(=O)N(C6CCC(=O)NC6=O)C7=O)CC5)cc4)nc23)c1 (stereo not drawn) [RSS0628]
[2]; CAMKK1 (Q8N5S9-2), experiment wp045
  logFC: −0.3412
[2]; Experiment wp045
  logFC of CAMKK1 (Q8N5S9-2): −0.3412
[2]
  kinases the bifunctional compound degrades: AAK1. AURKA, CAMKK1, CDK4, CDK6, LIMK2, NEK9, PTK2B, STK17A, STK17B, ULK1, ULK3, and WEE1
  Kinase hits: AAK1, AURKA, CAMKK1, CDK4, CDK6, LIMK2, NEK9, PTK2B, STK17A, STK17B, ULK1, ULK3, WEE1
  Total no. kinase hits: 13
[3]; experiment wp045
  logFC WEE1 (P30291-1): −1.578

## Cc1ncsc1-c1ccc([C@H](C)NC(=O)[C@@H]2C[C@@H](O)CN2C(=O)[C@@H](NC(=O)CCCCCN2CCc3cc(Nc4ncc(C5CC5)c(NCCCNC(=O)C5CCC5)n4)ccc3C2)C(C)(C)C)cc1 [BSJ.05.026]
[2]; MARK3 (P27448-5), experiment wp195
  logFC: −0.8242
[2]; experiment wp195, direction of change down
  logFC MARK3 (P27448-5): −0.8242
[3]; Experiment wp195
  logFC WEE1 (P30291-1): −0.8876
[3]; experiment wp196
  logFC of WEE1: −0.8876

## Cc1ncsc1-c1ccc([C@H](C)NC(=O)[C@@H]2C[C@@H](O)CN2C(=O)[C@@H](NC(=O)CCCCCN2CCN(c3ccc(Nc4ncc5scc(-c6cccc(NS(C)(=O)=O)c6)c5n4)cc3)CC2)C(C)(C)C)cc1 [RSS0680, (2S,4R)-1-((S)-3,3-Dimethyl-2-(6-(4-(4-((7-(3-(methylsulfonamido)phenyl)thieno[3,2-d]pyrimidin-2-yl)amino)phenyl)piperazin-1-yl)hexanamido)butanoyl)-4-hydroxy-N—((S)-1-(4-(4-methylthiazol-5yl)phenyl)ethyl)pyrrolidine-2-carboxamide]
[2]
  kinases the bifunctional compound degrades: AAK1, CDK1, CDK16, CDK2, CDK4, CDK6, EIF2AK4, GAK. LATS1, LIMK2, MAPK6, MAPKAPK5, MARK2, MARK4, MKNK2, NEK9, RPS6KB1, SIK2, SNRK, STK17A, STK17B, STK35, and WEE1
  Kinase hits: AAK1, CDK1, CDK16, CDK2, CDKA, CDK6, EIF2AK4, GAK, LATS1, LIMK2, MAPK6, MAPKAPK5, MARK2, MARK4, MKNK2, NEK9, RPS6KB1, SIK2, SNRK, STK17A, STK17B. STK35, WEE1
  Total no. kinase hits: 26
[2]; experiment wp080
  logFC CDK16 (Q00536-2): −1.002
[2]; experiment wp117
  logFC CDK16 (Q00536-2): −0.9383
[2]; protein HK1 (P19367-3), experiment wp080, down
  logFC HK1: −0.3696
[3]; experiment wp080
  logFC of WEE1: −2.359
  logFC WEE1 (P30291-1): −2.359
[3]; experiment wp117
  logFC of WEE1: −1.85
  logFC WEE1 (P30291-1): −1.85

## O=C1CCC(N2C(=O)c3cccc(NCCCCCCCCN4CCC(NC(=O)c5[nH]ncc5NC(=O)c5c(Cl)cccc5Cl)CC4)c3C2=O)C(=O)N1 (stereo not drawn) [MFH.5.126.1]
[2]; Accession O60566-3, experiment wp076, direction down
  logFC BUB1B: −0.7532
[2]; Accession P48730-2, experiment wp076, direction down
  logFC CSNK1D: −0.9201
[2]; Accession P49841-2, experiment wp078, direction down
  logFC GSK3B: −0.9629
[2]; BUB1B (O60566-3), experiment wp076
  logFC BUB1B: −0.7532
[2]; CDK9 (P50750-2) protein abundance, degrader vs DMSO, down
  logFC: −0.7008
[2]; [12]
  logFC: −1.494
  logFC CLK1: −1.494
[2]; CSNK1A1 (P48729-2), experiment wp076
  logFC: −0.4586
[2]; CSNK1D P48730-2, experiment wp076
  logFC CSNK1D: −0.9201
[2]; Experiment wp076, direction of change down
  logFC DAPK1 (P53355-3): −0.4488
[2]; GSK3B P49841-2, experiment wp076
  logFC GSK3B: −0.9629
[2]; experiment wp076
  logFC CDK9 (P50750-2): −0.7008
  logFC of CSNK1A1 (P48729-2): −0.4586
[2]; protein DAPK1 (P53355-3), experiment wp076, down
  logFC DAPK1: −0.4488
[3]; experiment wp076, degrader vs DMSO
  logFC of WEE1: −0.9048
[3]; experiment wp076
  logFC WEE1 (P30291-1): −0.9048
